Holding throughout (format): cell-based
For one assay, the system named is Huh7 cells. The experiment in a line: LD content in Huh7 cells pre-treated with insulin, Oil-Red-O staining, absorbance OD 540 nm. Particulars: procedure of Example 3, read-out: LD content inhibition (EC50). In outline:
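Huh7 cells, mock-treated or pre-treated with 1 mM insulin, were then exposed to compound at the indicated amounts. Lipid droplets stained with Oil Red O and quantified by absorbance at OD 540 nm.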

The test system of another assay is SREBP-2. In words: SREBP-2 expression in cultured primary human hepatocytes. Particulars: procedure of Example 6, read-out: SREBP-2 mRNA inhibition (EC50). The gist of the method: (§1)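 Primary human hepatocytes in culture exposed to a range of HPN-01 derivative concentrations; SREBP-1 and SREBP-2 mRNA expression then measured to assess inhibition.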
In the next assay the test system is SREBP-1. The experiment in a line: SREBP-1 expression in cultured primary human hepatocytes. Particulars: procedure of Example 6, read-out: SREBP-1 mRNA inhibition (EC50). In outline:
as §1

The mark [1] stands for this setting: Homo sapiens, Huh-7, Huh7 cells.

Like-named read-outs stand apart in the source and are kept apart here.

Usually EC50 stands for the concentration that produces a half-maximal response.

As to “2-amino-5-((4-fluorophenyl)ethynyl)-4′-sulfamoylbiphenyl-3-carboxamide [HPN-01203]”, the concentration for a half-maximal effect (EC50) in the assay with Huh7 cells (Huh7 cells) is 0.55 µM; in the assay on SREBP-2, 2.1 µM; in the assay with SREBP-1 it was 1.7 µM.

Take `NC(=O)c1cc(C#Cc2ccc(Br)cc2)cc(-c2ccc(S(N)(=O)=O)cc2)c1N` [HPN-01207, 2-amino-5-((4-bromophenyl)ethynyl)-4′-sulfamoyl-[1,1′-biphenyl]-3-carboxamide]: the EC50 with Huh7 cells (setting [1]) came out at 0.98 µM; in the assay on SREBP-2 (Homo sapiens, Hepatocyte), 2.73 µM; with SREBP-1 (Homo sapiens, Hepatocyte), 1.94 µM.

Take `CCCNC(=O)c1cc(-c2ccc(Br)cc2)cc(-c2ccc(S(N)(=O)=O)cc2)c1N` [HPN-01604, 4′-amino-4-bromo-N-propyl-4″-sulfamoyl-[1, 1′:3′,1″-terphenyl]-5′-carboxamide]: the EC50 with Huh7 cells (setting [1]) stood at 1.14 µM; in the assay on SREBP-2 (Homo sapiens, Hepatocyte), 5.71 µM; with SREBP-1 (Homo sapiens, Hepatocyte), 1.95 µM.

With `Cc1ccc(C(=O)OCC#Cc2cc(C(N)=O)c(N)c(-c3ccc(S(N)(=O)=O)cc3)c2)cc1` [HPN-01214, 3-(6-amino-5-carbamoyl-4′-sulfamoyl-[1,1′-biphenyl]-3-yl)prop-2-yn-1-yl 4-methylbenzoate], the EC50 with Huh7 cells (setting [1]) came out at 0.52 µM; with SREBP-2 (Homo sapiens, Hepatocyte) it was 6.32 µM; with SREBP-1 (Homo sapiens, Hepatocyte), 3.42 µM.

The values above are taken from patent US11000491B2, “Amino-aryl-benzamide compounds and methods of use thereof” (HEPANOVA, INC., priority 2017, dated 2021).
